These results are taken from US7652031B2, “Compounds which mimic the chemical and biological properties of discodermolide” (priority 2001, dated 2010).

Molecules are shown by their SMILES. Read-outs that look alike come from different tables or passages of the source.

For data set [1], the system named is microtubule protein (MTP). The experiment in a line: In vitro tubulin polymerization assay (turbidity at 350 nm). The format is biochemical, calf. Particulars: for induction of tubulin assembly in the absence of GTP / extent of polymerization after 100 min / initial slope (0-5 min), slope for (+)-discodermolide assigned 1.0: 10 μM; for induction of tubulin assembly in the absence of GTP: 37° C.; for extent of polymerization after 100 min: turbidity; for initial slope (0-5 min), slope for (+)-discodermolide assigned 1.0: first 5 min, relative to (+)-discodermolide; for stability of the microtubules formed against calcium-induced depolymerization: microtubules formed in the presence of the compound. How it is done:
(§1) All drugs were dissolved in sterile DMSO and stored at −20° C. Microtubule protein (MTP) was purified by 2 cycles of temperature-dependent assembly-disassembly from calf brain and stored in liquid nitrogen. See, for example, Welsenberg, R. C., “Microtubule formation in vitro in solutions containing low calcium concentrations”, Science, 1972, 177, 1104-1105.
Microtubule polymerization was evaluated by recording the change in turbidity of MTP at 350 nm for 100 min in a spectrophotometer (UVIKON, Research Instruments Int., San Diego, Calif.). See, for example, Shelanski, M. L., et al., “Microtuble assembly in the absence of added nucleotides”, Proc. Natl. Acad. Sci. USA, 1973, 70, 765-768. Purified MTP was diluted in assembly buffer containing 0.1 M MES, I mM EGTA, 0.5 mM MgCl2, and 3 M glycerol (pH 6.6) to a final concentration of 1 mg/ml. All compounds were evaluated at a concentration of 10 μM at 37° C. in the absence of GTP. The changes in absorption that occurred during the first 5 min were used to plot initial slopes from the linear portion of each curve in order to compare the initial activity of each compound.
The activities of Taxol, (+)-discodermolide, and several structural analogs were determined in the foregoing in vitro tubulin polymerization assay that measures changes in absorbance that correlate with the extent of microtubule polymerization. It will be appreciated that microtubule polymerization involves both nucleation (initiation) and elongation steps. The initial rates of polymerization reflect the nucleation process. See, for example, Gaskin, F., et al. “Turbidimetric studies of the in vitro assembly and disassembly of porcine neurotubules”, J. Mol. Biol., 1974, 89, 737-758.

For data set [2], the system named is microtubule protein (MTP). Description: Electron microscopy of microtubules from the in vitro polymerization assay. Particulars: for Average Polymer Length (μm): microtubule lengths after assembly, minimum of 50 microtubules. The format is biochemical, calf. How it is done: Aliquots (50 μL) were taken from the in vitro polymerization assay at the end of the reaction and placed onto 300-mesh carbon-coated, Formavar-treated copper grids. Samples were then stained with 20 μL of 2% uranyl acetate and viewed with a JEOL model 100CX electron microscope. To determine the lengths of the microtubules, electron micrograph negatives were scanned and then analyzed using IP Lab software. Measurements were performed on negatives at ×10000 and ×50000, with a minimum of 50 microtubules measured for each compound.
The microtubule protein from each in vitro assay was examined by electron microscopy to confirm that normal microtubules were formed in the presence of the compounds. In all cases, except for the DMSO control, microtubules were observed. […] Table 1 provides a comparison of microtubule lengths after assembly with Taxol, discodermolide and analogs I-i, I-ii, I-iii, and I-iv.

Data set [3] deals with microtubules. Description: Drug binding competition assay ([3H]Taxol binding to preformed microtubules). More on the design: species or system calf. How it is done:
as §1
The assay was performed using methods described in Bollag, D. M., et al., “Epothilones, a new class of microtubule-stabilizing agents with a Taxol-like mechanism of action”, Cancer-Res., 1995, 55, 2325-2333 and He, L., et al., “A common pharmacophore for Taxol and the epothilones based on the biological activity of a taxane molecule lacking a C-13 side chain”, Biochemistry, 2000, 39, 3972-3978. MTP (0.4 mg/ml) was incubated at 37° C. with 1 mM GTP and […] Taxol for 20 min to induce the assembly of microtubules. One hundred nanomolar [^3H]Taxol (specific activity: 19.3 Ci/mmol) and the indicated concentration of the competing agent were added simultaneously to the preformed microtubules. The mixtures were further incubated at 37° C. for 30 min to allow binding of [^3H]Taxol. Microtubules were collected by ultracentrifugation (100,000 g, 1 hr, 30° C.) and the radioactivity measured using a liquid scintillation counter. The inhibition of binding of [^3H]Taxol to microtubules was expressed as a percentage compared to the control (100%).

Data set [4] has as its system A549 cells. The experiment in a line: Cytotoxicity assay, A549 cells. The format is cell-based, human. How it is done: The A549 lung carcinoma cell line was maintained as described in Kavallaris, M., et al., “Taxol-resistant epithelial ovarian tumors are associated with altered expression of specific β-tubulin isotypes”, J. Clin. Invest., 1997, 100, 1282-1293.
(§2) A549 cells were seeded in triplicate at a density of 1×10^4 cells/ml in 6-well plates and allowed to attach for 24 h. After incubation with various drug concentrations for 72 h, adherent cells were trypsinized and counted (Coulter Counter model Z1; Coulter Corp., Miami, Fla.), and the IC50 was determined. SKOV3 cells were seeded at a density of 2×10^4 cells/ml and the above procedure followed.

Data set [5] concerns SKOV3 cells. Description: Cytotoxicity assay, SKOV3 cells. The format is cell-based, human. How it is done:
The SKOV3 ovarian carcinoma cell line was obtained from Dr. V. Ling and was maintained as described in McDaid, H. M., et al., “Structure-activity profiles of eleutherobin analogs and their cross-resistance in Taxol-resistant cell lines”, Cancer Chemother. Pharmacol., 1999, 44, 131-137.
as §2

For data set [6], the system named is A549 cells. Description: Flow cytometry (cell cycle), A549 cells. The format is cell-based, human. To be noted: 24 h.
Data set [7] concerns A549 cells. The experiment in a line: Immunofluorescence (microtubules, DNA), A549 cells. The format is cell-based, human. How it is done: In addition, cells were stained with Hoescht solution (Sigma; 1:2.5 dilution) for 15 min after the secondary antibody wash. Slides were analyzed using a Zeiss Axiophot microscope (rhodamine and DAPI filters) at ×100 magnification.
The test system of data set [8] is murine splenocytes. Particulars: in vitro; cited from earlier work.
For data set [9], the system named is murine splenocytes. Particulars: in vitro, cited from earlier work.
Data set [10] relates to F1 recipient mice. To be noted: cited from earlier work.
Data set [11] relates to tubulin. Particulars: cited from earlier work.
For data set [12], the system named is tubulin. To be noted: cited from earlier work. The source holds these as a separate data set.
In data set [13] the test system is MCF-7 cells. To be noted: cited from earlier work.
Data set [14] relates to human carcinoma cell lines. Particulars: in cells; cited from earlier work.
Setting [15] is: (+)-discodermolide 25 nM, analogs at different cytotoxic concentrations.

In general, IC50 refers to the concentration that inhibits the measured activity by half. Take `C=C/C=C\[C@H](C)[C@H](OC(N)=O)[C@@H](C)[C@H](O)[C@@H](C)C/C(C)=C\[C@H](C)[C@@H](O)[C@@H](C)/C=C\[C@@H](O)C[C@@H]1OC(=O)[C@H](C)[C@@H](O)[C@H]1C` (single isomer, unassigned) [(+)-discodermolide]: the “induction of tubulin assembly in the absence of GTP” value in data set [1] was “induced tubutin assembly in the absence of GTP”. In addition, the “extent of polymerization after 100 min” value in [1] is listed as “essentially the same”. In addition, in [1], the “initial slope (0-5 min), slope for (+)-discodermolide assigned 1.0” value was 1.0. Besides, the “level of polymerization by protein content in the supernatant” value in [1] (end of assay, 100,000 g for 30 min) is on record as “comparable”. The “stability of the microtubules formed against calcium-induced depolymerization” value in data set [1] was “stable against calcium-induced depolymerzation”. For the same molecule, in [2] (electron microscopy), the “microtubule length compared with GTP or Taxol” value is “much shorter microtubules”. In addition, the “Average Polymer Length (μm)” value in data set [2] is on record as 0.78 ± 0.3 μm. Further, the “inhibition of binding of [3H]Taxol to microtubules” value (shortened to “inhibition of binding of [3H]Taxol”) in [3] (1 μM competing agent) is listed as “very similar inhibition”; in data set [3] (10 μM competing agent), “approximately 45%”; in data set [3] (100 μM competing agent), around 95%. Besides, the “inhibition of the proliferation of A549 cells” value in data set [4] was “inhibited the proliferation of A549 cells”. Also, the IC50 stood at 3.8 nM in [4] (Homo sapiens, A549, 72 h, read-out: A549 (IC50(μm))) and 31.3 ± 6.8 nM in data set [5] (Homo sapiens, SK-OV-3, 72 h, read-out: SKOV3 (IC50(μm))). For the same molecule, the “less active in SKOV3 compared to A549 cells” value in [5] (SKOV3 vs A549) was “approximately 8 fold”. In addition, the “hypodiploid population of cells (apoptosis)” value in data set [6] (25 nM) was “increase in the hypodiploid population of cells”. The “cell cycle block in G2/M phase” value in data set [6] (setting [15]) is reported as “blocked in the G2/M phase of the cell cycle”. In data set [7], the “location of microtubule bundles in the cells” value is “at the periphery of the cells”. The “microtubule bundles and condensed nuclear DNA” value in data set [7] (setting [15]) was “Microtubule bundles and condensed nuclear DNA appeared”. Moreover, the “concentrations at which bundles and condensed DNA were not seen” value in data set [7] (effect seen at 25 nM and above) is listed as “below 12 nM”. In addition, the “suppression of the two-way mixed-lymphocyte reaction” value in data set [8] is “suppresses”. For the same molecule, in data set [9], the “suppression of concanavalin A-induced mitogenesis” value is recorded as “suppresses”. Moreover, in [9] (mixed-lymphocyte reaction and mitogenesis assays), the “cytotoxicity associated with the suppression” value is “no associated cytotoxicity”. The “potency in graft-vs.-host splenomegaly response” value in data set [10] (compared with cyclosporin A and FK506) is “intermediate between those of cyclosporin A and FK506”. The “suppression of graft-vs.-host splenomegaly response” value in data set [10] (injection of parental splenocytes into F1 recipient mice) is reported as “suppresses”. The “binding affinity compared with Taxol” value was “much higher” in data set [11] (listed as 1) and “higher affinity for tubulin” in [11] (listed as (+)-discoderrnolide). The “potency at nucleating tubulin assembly compared to Taxol” value in [12] was “more potent”. The “potency at inducing microtubule bundles compared to Taxol” value in [13] is “more potent”. For the same molecule, the “cytotoxicity compared with Taxol” value in data set [14] is “less cytotoxic than Taxol”.

On to `CC(=O)O[C@H]1C(=O)[C@@]2(C)[C@H]([C@H](OC(=O)c3ccccc3)[C@]3(O)C[C@H](OC(=O)[C@H](O)[C@@H](NC(=O)c4ccccc4)c4ccccc4)C(C)=C1C3(C)C)[C@]1(OC(C)=O)CO[C@@H]1C[C@@H]2O` [Taxol], for which, in data set [1], the “induction of tubulin assembly in the absence of GTP” value is on record as “induced tubutin assembly in the absence of GTP”; the “extent of polymerization after 100 min” value is given as “essentially the same”; the “initial slope (0-5 min), slope for (+)-discodermolide assigned 1.0” value is 0.28; the “stability of the microtubules formed against calcium-induced depolymerization” value was “stable against calcium-induced depolymerzation”. Further, the “Average Polymer Length (μm)” value in [2] was found to be 3.3 ± 1.2 μm. In addition, the “inhibition of binding of [3H]Taxol” value in data set [3] (1 μM competing agent) was “very similar inhibition”. The “inhibition of binding of [3H]Taxol” value in [3] (10 μM competing agent) is “approximately 45%”. The “inhibition of binding of [3H]Taxol” value in data set [3] (100 μM competing agent) stood at 80%. Also, the “location of microtubule bundles in the cells” value in [7] was “throughout the cells”.
